# US4495179A, “A51568 Antibiotic and process for producing thereof” (Eli Lilly and Company, priority 1983, dated 1985)
# What was measured:
# [1] = system: Strep. pneumoniae Park I; test: In vivo protection against experimental bacterial infection; conditions: mice, two doses subcutaneously
# Protocol: (§1) Antibiotic A51568 has shown in vivo antimicrobial activity against experimental bacterial infections. When two doses of test compound were administered subcutaneously to mice in illustrative infections, the activity observed is measured as an ED50 [effective dose in mg/kg to protect fifty percent of the test animals: See Warren Wick et al., J. Bacteriol. 81, 233-235 (1961)]. The ED50 values observed for antibiotic A51568 are as follows: […]
# [2] = system: Strep. pyogenes C203; test: as above; conditions: mice, two doses subcutaneously
# Protocol: as §1
# [3] = system: Staph. aureus 3055; test: as above; conditions: mice, Staph. aureus 3055 infection, two doses subcutaneously
# Protocol: as §1
# [4] = system: Clostridium difficile; test: Agar-dilution MIC, anaerobic bacteria (Table 10); format: cell-based; conditions: Clostridium difficile 2994
# Text: (§2) Antibiotic A51568 has been tested and found to be active against a number of anaerobic bacteria, as recorded in Table 10, which follows, the MIC values having been determined by the agar-dilution method.
# [5] = system: Clostridium septicum; test: Agar-dilution MIC, anaerobic bacteria (Table 10); format: cell-based; conditions: Clostridium septicum 1128
# Text: as §2
# [6] = system: Bacteroides melaninogenicus; test: Agar-dilution MIC, anaerobic bacteria (Table 10); format: cell-based
# [7] = system: Bacteroides corrodens; test: Agar-dilution MIC, anaerobic bacteria (Table 10); format: cell-based; conditions: Bacteroides corrodens 1874
# [8] = system: Peptostreptococcus intermedius; test: Agar-dilution MIC, anaerobic bacteria (Table 10); format: cell-based; conditions: Peptostreptococcus intermedius 1264
# [9] = system: Streptococcus sp. Group D; test: Agar-dilution MIC, variety of bacteria (Table 8); format: cell-based
# Protocol: (§3) The activity of antibiotic A51568 against a variety of bacteria, as determined by the agar-dilution method, is reported in Table 8, which follows, wherein the minimum inhibitory concentration (MIC) values are recorded.
# [10] = system: Haemophilus influenzae; test: Agar-dilution MIC, variety of bacteria (Table 8); format: cell-based
# Protocol: as §3
# [11] = system: Staphylococcus epidermidis; test: Agar-dilution MIC, variety of bacteria (Table 8); format: cell-based
# Protocol: as §3
# [12] = system: Streptococcus sp. Group B; test: Agar-dilution MIC, variety of bacteria (Table 8); format: cell-based
# Protocol: as §3
# [13] = system: Haemophilus parainfluenzae; test: Agar-dilution MIC, variety of bacteria (Table 8); format: cell-based
# Protocol: as §3
# [14] = system: Staphylococcus aureus; test: Agar-dilution MIC, variety of bacteria (Table 8); format: cell-based
# Protocol: as §3
# [15] = system: Streptococcus pyogenes; test: Agar-dilution MIC, variety of bacteria (Table 8); format: cell-based
# Protocol: as §3
# [16] = system: Streptococcus pneumoniae; test: Agar-dilution MIC, variety of bacteria (Table 8); format: cell-based
# Protocol: as §3
# [17] = system: Bacteroides fragilis; test: Agar-dilution MIC, anaerobic bacteria (Table 10); format: cell-based
# [18] = system: Peptostreptococcus anaerobius; test: Agar-dilution MIC, anaerobic bacteria (Table 10); format: cell-based; conditions: Peptostreptococcus anaerobius 1428
# [19] = system: Bacteroides vulgatis; test: Agar-dilution MIC, anaerobic bacteria (Table 10); format: cell-based; conditions: Bacteroides vulgatis 1211
# [20] = system: Propionibacterium acnes; test: Agar-dilution MIC, anaerobic bacteria (Table 10); format: cell-based; conditions: Propionibacterium acnes 79
# [21] = system: Peptococcus asaccharolyticus; test: Agar-dilution MIC, anaerobic bacteria (Table 10); format: cell-based; conditions: Peptococcus asaccharolyticus 1302
# [22] = system: Fusobacterium symbiosum; test: Agar-dilution MIC, anaerobic bacteria (Table 10); format: cell-based; conditions: Fusobacterium symbiosum 1470
# [23] = system: Fusobacterium necrophorum; test: Agar-dilution MIC, anaerobic bacteria (Table 10); format: cell-based; conditions: Fusobacterium necrophorum 6054A
# [24] = system: Peptococcus prevoti; test: Agar-dilution MIC, anaerobic bacteria (Table 10); format: cell-based; conditions: Peptococcus prevoti 1281
# [25] = system: Clostridium difficile; test: Agar-dilution MIC, Clostridium difficile strains (Table 11); format: cell-based
# Text: Antibiotic A51568 is also active against a number of strains of Clostridium difficile, as determined by the agar-dilution method.
# [26] = system: Eubacterium aerofaciens; test: Agar-dilution MIC, anaerobic bacteria (Table 10); format: cell-based; conditions: Eubacterium aerofaciens 1235
# [27] = system: Bacteroides thetaiotaomicron; test: Agar-dilution MIC, anaerobic bacteria (Table 10); format: cell-based; conditions: Bacteroides thetaiotaomicron 1438
# [28] = system: Clostridium perfringens; format: cell-based; conditions: Clostridium perfringens 81; Table 10
# [29] = system: Streptococcus sp. Group D; test: Standard agar-dilution assay, aerobic bacteria (Table 9); format: cell-based
# Protocol: (§4) The in vitro activity of antibiotic A51568 against a number of aerobic bacteria has been determined using a standard agar-dilution assay. The results, determined by reading the end point after 24 hours, are recorded in Table 9, which follows.
# [30] = system: Haemophilus influenzae; test: as above; format: cell-based
# Protocol: as §4
# [31] = system: Escherichia coli; test: as above; format: cell-based
# Protocol: as §4
# [32] = system: Staphylococcus epidermidis; test: as above; format: cell-based
# Protocol: as §4
# [33] = system: Klebsiella pneumoniae; test: as above; format: cell-based
# Protocol: as §4
# [34] = system: Staphylococcus aureus; test: as above; format: cell-based
# Protocol: as §4
# [35] = system: Streptococcus pyogenes; test: as above; format: cell-based; conditions: Streptococcus pyogenes C203, end point after 24 hours
# Protocol: as §4
# [36] = system: Streptococcus pneumoniae; test: as above; format: cell-based; conditions: Streptococcus pneumoniae Park I, end point after 24 hours
# Protocol: as §4
smiles,measurement,setting,value
"CC(C)C[C@@H](N)C(=O)N[C@@H]1C(=O)N[C@@H](CC(N)=O)C(=O)N[C@H]2C(=O)N[C@H]3C(=O)N[C@H](C(=O)N[C@H](C(=O)O)c4cc(O)cc(O)c4-c4cc3ccc4O)[C@H](O)c3ccc(c(Cl)c3)Oc3cc2cc(c3O[C@@H]2O[C@H](CO)[C@@H](O)[C@H](O)[C@H]2O[C@H]2C[C@](C)(N)C(O)[C@H](C)O2)Oc2ccc(cc2Cl)[C@H]1O (some centres unmarked) [A51568, demethylvancomycin]",ED50 (effective dose to protect fifty percent of the test animals),[1],2.71 mg/kg × 2
same,ED50 (effective dose to protect fifty percent of the test animals),[2],3.03 mg/kg × 2
same,ED50 (effective dose to protect fifty percent of the test animals),[3],1.79 mg/kg × 2
same,MIC,[4],2 µg/mL
same,MIC,[5],1 µg/mL
same,MIC,[6]; Bacteroides melaninogenicus 1856/28,> 128 µg/mL
same,MIC,[6]; Bacteroides melaninogenicus 2736,16 µg/mL
same,MIC,[7],32 µg/mL
same,MIC,[8],1 µg/mL
same,MIC,[9]; Streptococcus sp. Group D 2041,2 µg/mL
same,MIC,[9]; Streptococcus sp. Group D 2058,4 µg/mL
same,MIC,[9]; Streptococcus sp. Group D 8043,1 µg/mL
same,MIC,[9]; Streptococcus sp. Group D 9901,2 µg/mL
same,MIC,[9]; Streptococcus sp. Group D 9960,4 µg/mL
same,MIC,[9]; Streptococcus sp. Group D 12253F,1 µg/mL
same,MIC,[9]; Streptococcus sp. Group D Mx161,1 µg/mL
same,MIC,[9]; Streptococcus sp. Group D X66,1 µg/mL
same,MIC,[10]; Haemophilus influenzae 76,64 µg/mL
same,MIC,[10]; Haemophilus influenzae 312,128 µg/mL
same,MIC,[10]; Haemophilus influenzae 4842,32 µg/mL
same,MIC,[10]; Haemophilus influenzae 16836,128 µg/mL
same,MIC,[10]; Haemophilus influenzae Bond,64 µg/mL
same,MIC,[10]; Haemophilus influenzae C.L.,32 µg/mL
same,MIC,[10]; Haemophilus influenzae Mx366,32 µg/mL
same,MIC,[10]; Haemophilus influenzae Mx371,64 µg/mL
same,MIC,[11]; Staphylococcus epidermidis 219,1 µg/mL
same,MIC,[11]; Staphylococcus epidermidis 222,1 µg/mL
same,MIC,[11]; Staphylococcus epidermidis 269,2 µg/mL
same,MIC,[11]; Staphylococcus epidermidis 270,2 µg/mL
same,MIC,[11]; Staphylococcus epidermidis 285,2 µg/mL
same,MIC,[12]; Streptococcus sp. Group B 5,4 µg/mL
same,MIC,[12]; Streptococcus sp. Group B 14,0.5 µg/mL
same,MIC,[13]; Haemophilus parainfluenzae 7901,64 µg/mL
same,MIC,[13]; Haemophilus parainfluenzae 9796,64 µg/mL
same,MIC,[14]; Staphylococcus aureus 3055,0.5 µg/mL
same,MIC,[14]; Staphylococcus aureus V102,1 µg/mL
same,MIC,[14]; Staphylococcus aureus V138,1 µg/mL
same,MIC,[14]; Staphylococcus aureus V140,1 µg/mL
same,MIC,[14]; Staphylococcus aureus X400,1 µg/mL
same,MIC,[15]; Streptococcus pyogenes ATCC 10389,0.5 µg/mL
same,MIC,[15]; Streptococcus pyogenes C203,0.5 µg/mL
same,MIC,[16]; Streptococcus pneumoniae Bl-438,0.5 µg/mL
same,MIC,[16]; Streptococcus pneumoniae Park I,0.125 µg/mL
same,MIC,[17]; Bacteroides fragilis 111,32 µg/mL
same,MIC,[17]; Bacteroides fragilis 1877,32 µg/mL
same,MIC,[17]; Bacteroides fragilis 1936B,32 µg/mL
same,MIC,[18],1 µg/mL
same,MIC,[19],32 µg/mL
same,MIC,[20],1 µg/mL
same,MIC,[21],16 µg/mL
same,MIC,[22],2 µg/mL
same,MIC,[23],2 µg/mL
same,MIC,[24],32 µg/mL
same,MIC,[25]; Clostridium difficile 78,2 µg/mL
same,MIC,[25]; Clostridium difficile 107B,2 µg/mL
same,MIC,[25]; Clostridium difficile 111F,2 µg/mL
same,MIC,[25]; Clostridium difficile 1153,2 µg/mL
same,MIC,[25]; Clostridium difficile 2634,2 µg/mL
same,MIC,[25]; Clostridium difficile 3424-5B,2 µg/mL
same,MIC,[25]; Clostridium difficile 3816,2 µg/mL
same,MIC,[25]; Clostridium difficile 3950D,2 µg/mL
same,MIC,[25]; Clostridium difficile 6890,2 µg/mL
same,MIC,[25]; Clostridium difficile 8484,2 µg/mL
same,MIC,[25]; Clostridium difficile A-194,2 µg/mL
same,MIC,[25]; Clostridium difficile A-195,2 µg/mL
same,MIC,[25]; Clostridium difficile A-196,2 µg/mL
same,MIC,[25]; Clostridium difficile A-279,2 µg/mL
same,MIC,[25]; Clostridium difficile A-280,2 µg/mL
same,MIC,[25]; Clostridium difficile A-281,2 µg/mL
same,MIC,[25]; Clostridium difficile WAL-2112,2 µg/mL
same,MIC,[25]; Clostridium difficile WAL-3657,2 µg/mL
same,MIC,[25]; Clostridium difficile WAL-4268,2 µg/mL
same,MIC,[26],2 µg/mL
same,MIC,[27],32 µg/mL
same,MIC,[28],1 µg/mL
same,MIC,"[29]; Streptococcus sp. Group D 9960, end point after 24 hours",4 µg/mL
same,MIC,"[29]; Streptococcus sp. Group D X66, end point after 24 hours",1 µg/mL
same,MIC,"[30]; Haemophilus influenzae (resistant) R252, end point after 24 hours",128 µg/mL
same,MIC,"[30]; Haemophilus influenzae (sensitive) Holt, end point after 24 hours",64 µg/mL
same,MIC,"[31]; Escherichia coli EC14, end point after 24 hours",> 128 µg/mL
same,MIC,"[31]; Escherichia coli N10, end point after 24 hours",> 128 µg/mL
same,MIC,"[31]; Escherichia coli TEM, end point after 24 hours",128 µg/mL
same,MIC,"[32]; Staphylococcus epidermidis EPI1, end point after 24 hours",2 µg/mL
same,MIC,"[32]; Staphylococcus epidermidis EPI2, end point after 24 hours",1 µg/mL
same,MIC,"[33]; Klebsiella pneumoniae KAE, end point after 24 hours",> 128 µg/mL
same,MIC,"[33]; Klebsiella pneumoniae X26, end point after 24 hours",> 128 µg/mL
same,MIC,"[34]; Staphylococcus aureus 3055, end point after 24 hours",1 µg/mL
same,MIC,"[34]; Staphylococcus aureus S13E, end point after 24 hours",1 µg/mL
same,MIC,"[34]; Staphylococcus aureus V41, end point after 24 hours",1 µg/mL
same,MIC,"[34]; Staphylococcus aureus X400, end point after 24 hours",2 µg/mL
same,MIC,[35],1 µg/mL
same,MIC,[36],0.5 µg/mL
